Data set [1] is classed as physicochemical. Conditions: for area %: HPLC area of (2R,4R)-monatin relative to total peak area, 210 nm, 60° C. preservation sample; for area % / weight change (%): 1 week; for weight change (%): HPLC quantitation value of 60° C. sample, room temperature sample = 100%. On the procedure:
The crystals of the (2R,4R)-monatin dipotassium salt obtained in Example 1 and Example 9, and crystals of the (2R,4R)-monatin monopotassium salt produced according to the production method described in the aforementioned WO03/045914 were subjected to a preservation stability test. Each sample (50 mg) was placed in a 4 ml vial (with screw cap) and stored at 60° C. and room temperature for 1 week.
A chromatogram for each sample was measured by HPLC, and the HPLC quantitation value of the 60° C. preservation sample, when that of the room temperature preservation sample was 100%, was shown as a weight change. In addition, an HPLC chromatogram of each sample was measured and the ratio of the area value of (2R,4R)-monatin relative to the total area value of the entire peaks detected (detection wavelength: 210 nm) in the 60° C. preservation sample was expressed as the area %.

Data set [2] is classed as physicochemical. To be noted: for transmittance (%): 1 g/dl in H2O, room temperature, 490 nm. The source says:
The crystals of the (2R,4R)-monatin dipotassium salt obtained in Example 9, (2R,4R)-monatin, and crystals of the (2R,4R)-monatin monopotassium salt produced according to the production method described in the aforementioned WO03/045914 were subjected to a coloring test. Measurement Method of Coloring Test: • Measurement device: CARY 50 UV-VIS spectrophotometer manufactured by Varian Technologies Japan Limited; • Concentration: 1 g/dl; • Solvent: H2O; • Temperature: room temperature; • Measurement wavelength: 490 nm; and • Measurement interval: 30 minutes.

The format of data set [3] is physicochemical. On the procedure: The crystals of the (2R,4R)-monatin dipotassium salt obtained in Example 9 and crystals of the (2R,4R)-monatin monopotassium salt were tested for solubility using the following conditions” • Temperature: 20° C.; and
Solubility measurement method: Two test tubes for each of 0, 20, 40, 60, 80, 100% ethanol, which contained 2 ml thereof were prepared. The crystals of the (2R,4R)-monatin dipotassium salt and crystals of the (2R,4R)-monatin monopotassium salt were added thereto in an amount prohibiting complete dissolution. The test tubes were capped and stirred overnight. Then, the mixture was passed through a filter (0.45 μm) and the filtrate was analyzed.

Where a name gives a salt, the structure may show the parent alone. Read-outs that look alike come from different tables or passages of the source.

On to `N[C@H](C[C@](O)(Cc1c[nH]c2ccccc12)C(=O)[O-])C(=O)[O-].[K+].[K+]` [Example 1, (2R,4R)-monatin dipotassium salt], for which, in data set [1] (dipotassium salt), the area % came out at 98.4% and the “weight change (%)” value is given as 99%.

Take `NC(CC(O)(Cc1c[nH]c2ccccc12)C(=O)O)C(=O)O` [(2R,4R)-monatin monopotassium salt]: the “transmittance (%)” value in data set [2] (time 0.0 hour) is given as 100.02%; in data set [2] (time 2.0 hour) it was 99.75%; in data set [2] (time 4.0 hour) it was 99.28%; in data set [2] (time 6.0 hour), 98.42%; in data set [2] (time 8.0 hour), 97.98%; in data set [2] (time 10.0 hour), 96.86%. In addition, the “transmittance (%)” value in data set [2] (time 12.0 hour) is 95.61%; in data set [2] (time 14.0 hour) it was 94.35%; in data set [2] (time 16.0 hour), 92.97%; in data set [2] (time 18.0 hour), 91.49%; in data set [2] (time 20.0 hour) it was 90.05%; in data set [2] (time 22.0 hour) it was 88.75%. The compound also registered an area % in data set [1] of 99.8%. In data set [1], the “weight change (%)” value is 100%.

In the case of `N[C@H](C[C@](O)(Cc1c[nH]c2ccccc12)C(=O)[O-])C(=O)[O-].[K+].[K+]` [Example 9, (2R,4R)-monatin dipotassium salt], the color stability result in data set [2] is recorded as “superior”. In addition, the “transmittance (%)” value in data set [2] (time 0.0 hour) is listed as 99.63%; in data set [2] (time 2.0 hour) it was 99.60%; in data set [2] (time 4.0 hour) it was 99.51%; in data set [2] (time 6.0 hour), 99.43%; in data set [2] (time 8.0 hour), 99.44%; in data set [2] (time 10.0 hour), 99.44%. Besides, the “transmittance (%)” value in data set [2] (time 12.0 hour) is recorded as 99.41%; in data set [2] (time 14.0 hour) it was 99.42%; in data set [2] (time 16.0 hour) it was 99.39%; in data set [2] (time 18.0 hour) it was 99.35%; in data set [2] (time 20.0 hour), 99.39%; in data set [2] (time 22.0 hour), 99.38%. In addition, the solubility result in data set [3] was “superior”. Moreover, in data set [1], the preservation stability result is recorded as “almost of the same level”. In addition, the area % in data set [1] came to 99.6%. Further, the “weight change (%)” value in data set [1] is 103%.

For the origin of these results see patent US7553974B2, “Crystal of (2R,4R)-monatin potassium salt and sweetener composition containing same” (Ajinomoto Co., Inc., priority 2004, dated 2009).
